Assay results from patent US9034904B2, “Forms of dexlansoprazole and processes for the preparation thereof” (APOTEX PHARMACHEM INC., priority 2009, dated 2015).

Experiment: Chemical stability on storage (chemical purity by HPLC)
Type: physicochemical
Conditions: for reduction in chemical purity by HPLC (area %): following 1 week of storage at 40° C. and 75% relative humidity (40° C./75% RH)

| reduction in chemical purity by HPLC (area %) | chemical stability compared to other known forms of dexlansoprazole such as the amorphous form (qualitative statement, storage conditions not given) | Compound |
| --- | --- | --- |
| 8.5 area % | – | Cc1c(OCC(F)(F)F)ccnc1C[S@@+]([O-])c1nc2ccccc2[nH]1 [amorphous form, (R)-2-[[[3-methyl-4-(2,2,2-trifluoroethoxy)-2-pyridinyl]methyl]sulfinyl]-1H-benzimidazole, reference compound] |
| – | increased chemical stability | Cc1c(OCC(F)(F)F)ccnc1C[S@@+]([O-])c1nc2ccccc2[nH]1 |
| essentially unchanged | – | CC(O)CO.Cc1c(OCC(F)(F)F)ccnc1C[S@@+]([O-])c1nc2ccccc2[nH]1.O |
